In patent US12029682B2, “Spray ejector mechanisms and devices providing charge isolation and controllable droplet charge, and low dosage volume ophthalmic administration” (EYENOVIA, INC., priority 2012, dated 2024):
“Also recorded” adds a separate entry of the source.

Key:
Format in all cases: in vivo, beagle dog
glaucomatous beagles [1] = assay: Intraocular pressure (IOP), TonoVet, in glaucomatous beagles
Protocol: (§1) One glaucomatous beagle dog (female, aged 3 years) from the University of Florida MacKay Colony of Glaucomatous Beagles was chosen for this study. The animal was rested a minimum of one week before starting the study. Prior to the commencement of the study, the animal was assigned one eye to receive 1.5 μl of 0.005% latanoprost and the contralateral eye to remain untreated as a control. The basic measurement protocol was followed at all times and performed by the same operator. PD was measured via Jameson Caliper (mm horizontally). IOP was measured using a TonoVet instrument with clean probe (iCare). IOP and PD were measured at time 0, 1, 2, 4, 7 and 18 hours daily for two days. Immediately after the time 0 measurement, the animal received 1.5 μl of 0.005% latanoprost in its assigned eye with a spray device. The contralateral eye was left untreated. The spray device was checked for accuracy before and after every use, and required a 10% delivered dose accuracy in pretreatment. Standard measurements continued throughout each day at time 1, 2, 4, 7 and 18 hours. Possible endpoints included, but were not limited to, excessive ocular irritation, ocular damage, and other illness or injury. No statistical crossover was utilized for this study.
as §1, with “study.” for “study. The animal was rested a minimum of one week before starting the study.”, “receive 3.0” for “receive 1.5”, “0 measurements,” for “0 measurement,”, “animal was administered 3.0” for “animal received 1.5”, “eye using” for “eye with”, “spray ejector” for “spray”
All animals were rested for a minimum of one week before starting the trials. IOP and pupil diameter (PD) were measured 5 times (at 0, 1, 2, 4, and 7 hours) daily for four days (study days 1-4) to establish initial baseline levels. The basic measurement protocol was followed at all times and performed by the same operator. PD was measured via Jameson Caliper (mm horizontally). IOP was measured with a TonoVet instrument with clean probe (iCare). After three rest days, one eye was randomly assigned to receive 9 μl of 0.005% latanoprost delivered via a spray ejector device, and the contralateral eye was administered traditional latanoprost from a traditional eyedropper container (26-30 μl).
On study days 5-9, IOP and PD measurements were taken at approximately 0900 h (time 0). Immediately after time 0 measurements, each animal received a once-daily dose of 9 μl of generic 0.005% latanoprost in its assigned eye via the spray ejector device. The contralateral eye received a clinical dose (one drop) of the same commercially available topical drug from a traditional eyedropper (positive control). The spray ejector device was checked for accuracy before and after every use and required a 10% delivered dose accuracy in pretreatment. Standard measurements continued throughout each day at 0, 1, 2, 4, and 7 hours. Possible endpoints included, but were not limited to, excessive ocular irritation, ocular damage, and other illness or injury. No statistical crossover was utilized for this study. […]

glaucomatous beagles [2] = assay: Ocular irritation observations in glaucomatous beagles
Protocol: Active drug delivery begins on study day eight. For five days, IOP and PD measurements are taken at 0900. Immediately after 0900 measurements (time 0), each animal receives 6 μl of generic latanoprost in its assigned eye with the ejector device, followed by a second dosing 3 minutes later of an additional 6 μl (to avoid overloading the conjunctival sac). The contralateral eye receives a clinical dose (one drop) of the same commercially-available topical drug from FDA approved container (positive control). The ejector device is checked for accuracy before and after every use (Table 1). Standard measurements continue throughout each day (at 0:30, 0:45, 1, 2, 7 hrs). Possible endpoints include, but are not limited to, excessive ocular irritation, ocular damage, or other illness and injury. […]
On study days 5-9, IOP and PD measurements were taken at approximately 0900 h (time 0). Immediately after these measurements, each animal received 6 μl of 0.03% bimatoprost in its assigned eye via the spray ejector device. The contralateral eye received a clinical dose (one drop) of the same commercially available topical drug from a traditional eyedropper (positive control). The spray ejector device was checked for accuracy before and after every use and required a 10% delivered dose accuracy in pretreatment. Standard measurements continued throughout each day at 0, 1, 2, 4, and 7 hours. Possible endpoints included, but were not limited to, excessive ocular irritation, ocular damage, and other illness or injury. No statistical crossover was utilized for this study.
Ophthalmic examinations (slit lamp with fluorescein and indirect ophthalmoscopy) were performed on the eyes of each animal prior to Study Day 1. Ocular findings were scored according to the McDonald-Shadduck Score System. Ocular findings were recorded using a standardized data collection sheet. Macroscopic observations were recorded in accordance with the Draize Scale for Scoring Ocular Lesions. Animals were assigned treatments based on basic randomization prior to study day one.
Following a 7 day rest period, the eye choice was reversed. Measurements of IOP, heart rate and pupil diameter (PD) were made at 0:15, 0:30, 0:45, 1, 2, 4, 7, and 18 hours in the primary and crossover study. A veterinary ophthalmologist evaluated each test subject before and after the study for evidence of ocular side effects.
Ophthalmic examinations (slit lamp with fluorescein and indirect ophthalmoscopy) were performed on the eyes of each animal prior to study day 1. Ocular findings were scored according to the McDonald-Shadduck score system and macroscopic observations were recorded in accordance with the Draize scale for scoring ocular lesions. Ocular findings were recorded using a standardized data collection sheet.

glaucomatous beagles [3] = assay: Intraocular pressure (IOP), TonoVet, in glaucomatous beagles; settings: for IOP decrease: 6.0 μl at 0.025% via spray ejector device and 0.005% eyedropper had similar results
glaucomatous beagles [4] = assay: Pupil diameter (PD), Jameson Caliper, in glaucomatous beagles
[5] = 1.5 μl of 0.005% once daily, spray ejector device, one dog, by hour 2
[6] = 3.0 μl of 0.005% once daily, spray ejector device, one dog, by hour 2
[7] = 12 μl of 0.005% BID via spray ejector device

Compound: CC(C)OC(=O)CCC/C=C\C[C@@H]1[C@@H](CC[C@@H](O)CCc2ccccc2)[C@H](O)C[C@@H]1O [latanoprost]
- IOP in the treated eye (glaucomatous beagles [1]; [5]): 11 mmHg
- effectiveness at lowering IOP and constricting the pupil vs traditional therapy (glaucomatous beagles [1]; 1.5 μl of 0.005% via Whisper MDD): as effective at lowering IOP and constricting the pupil as traditional therapy
- time of maximum decrease in IOP (glaucomatous beagles [1]; 3.0 μl of 0.005% once daily, spray ejector device, one dog): hour 7 on day 2
- decrease in IOP from the initial value (glaucomatous beagles [1]; [6]): 12 mmHg
- effectiveness at lowering/controlling IOP vs traditional eyedropper therapy (glaucomatous beagles [1]; 9 μl of 0.005% once daily via spray ejector device vs one drop (26-30 μl), 5 days, 7-hour period): as effective at lowering IOP and constricting the pupil as traditional therapy; also recorded: as effective at controlling IOP as traditional eyedropper therapy
- maximum decrease in IOP (glaucomatous beagles [1]; 12 μl of 0.005% BID via spray ejector device, study day 7 (first day of instillation)): 28 mmHg
- IOP level (glaucomatous beagles [1]; 12 μl of 0.005% BID via spray ejector device, study day 7, hour 7): 15.5±2.2 mmHg
- average daily change in IOP (maximum minus minimum) (glaucomatous beagles [1]; one drop of 0.005% by eyedropper): 14.6 mmHg
- IOP: ejector device treatment vs traditional treatment (glaucomatous beagles [1]; two 6 μl doses of 0.005% via ejector device vs one drop by eyedropper): no significant differences; also recorded: statistically indistinguishable
- ocular irritation, injury, or discomfort (glaucomatous beagles [2]; 0.005%, either treatment (spray ejector device BID, eyedropper)): no significant reports of ocular irritation, injury, or discomfort
- excessive eye irritation or other eye issues (glaucomatous beagles [2]; 0.005%, ejector device 12 μl and eyedropper): no reports of excessive eye irritation or other eye issues
- irritation (glaucomatous beagles [2]; 6.0 μl at 0.025% spray ejector device and 0.005% eyedropper): Normal irritation caused by prostaglandin analogues was present
- irritation vs eyedropper-treated eyes (glaucomatous beagles [2]; 9 μl of 0.005% via spray ejector device): less than that observed in the eyedropper-treated eyes
- irritation to the eye with the lower dosage (glaucomatous beagles [2]; [7]): less irritation to the eye
- irritation vs eyedropper administration (glaucomatous beagles [2]; five times (5×) concentration (0.025%) via spray ejector device): no more irritation than that occurring following eyedropper administration
- conjunctival irritation (glaucomatous beagles [2]; traditional treatment eyes (eyedropper), related to prostaglandin use): Some conjunctival irritation was noted
- duration of action vs spray ejector device (glaucomatous beagles [3]; 0.005%, one drop (26-30 μl) by eyedropper): greater
- maximum decrease in IOP from the initial value (glaucomatous beagles [3]; [5]): 16 mmHg
- IOP in the treated eye (glaucomatous beagles [3]; [6]): 19 mmHg
- effectiveness at lowering IOP and constricting the pupil vs traditional eyedropper therapy (glaucomatous beagles [3]; 3.0 μl of 0.005% via spray ejector device): as effective at lowering IOP and constricting the pupil as traditional eyedropper therapy
- IOP values vs baseline (glaucomatous beagles [3]; 9 μl of 0.005% once daily via spray ejector device): significantly lower than baseline
- average daily change / average fluctuation in IOP (maximum minus minimum) (glaucomatous beagles [3]; [7]): 7.6 mmHg
- average fluctuation in IOP (glaucomatous beagles [3]; [7]): 30%
- morning IOP spike compared to eyedropper delivery (glaucomatous beagles [3]; [7]): consistently prevented the anticipated morning IOP spike
- maximum IOP (glaucomatous beagles [3]; 12 μl of 0.005% BID via spray ejector device, day 8): 17.2±3.0 mmHg
- minimum IOP (glaucomatous beagles [3]; 12 μl of 0.005% BID via spray ejector device, day 8, hour 7): 13.6±1.2 mmHg
- maximum IOP (glaucomatous beagles [3]; 12 μl of 0.005% BID via spray ejector device, day 9): 26.2±6.3 mmHg
- minimum IOP (glaucomatous beagles [3]; 12 μl of 0.005% BID via spray ejector device, day 9, hour 4): 16.2±1.5 mmHg
- maximum IOP (glaucomatous beagles [3]; 12 μl of 0.005% BID via spray ejector device, day 10): 27.5±3.5 mmHg
- minimum IOP (glaucomatous beagles [3]; 12 μl of 0.005% BID via spray ejector device, day 10, hour 4): 14.0±1.3 mmHg
- maximum IOP (glaucomatous beagles [3]; 12 μl of 0.005% BID via spray ejector device, day 11): 26.5±2.8 mmHg
- minimum IOP (glaucomatous beagles [3]; 12 μl of 0.005% BID via spray ejector device, day 11, hour 7): 14.7±0.9 mmHg
- effectiveness at lowering/controlling IOP vs traditional eyedropper therapy (glaucomatous beagles [3]; 30 μl of 0.005% once daily via spray ejector device, 2 dogs): as effective at lowering IOP and constricting the pupil as the traditional eyedropper therapy; also recorded: as effective in controlling IOP as traditional eyedropper therapy
- duration of action vs eyedropper (glaucomatous beagles [3]; 30 μl of 0.005% via spray ejector device, pilot study): trend toward increased duration of action
- IOP: spray ejector device 6.0 μl at 0.025% vs 0.005% eyedropper (glaucomatous beagles [3]; any point in the study (p=0.823)): no significant differences; also recorded: statistically equivalent
- IOP decrease (glaucomatous beagles [3]; first day of the study): approximately 45.4 mmHg
- maximum decrease in IOP (glaucomatous beagles [3]; one drop of 0.005% by eyedropper, over the 5 days of the study): 27.5 mmHg
- IOP decrease (glaucomatous beagles [3]; subsequent days): ~24.7 mmHg
- duration of PD constriction vs eyedropper (glaucomatous beagles [4]; [7]): remained constricted much longer
- PD: spray ejector device 6.0 μl at 0.025% vs 0.005% eyedropper (glaucomatous beagles [4]; any point in the study (p=0.943)): no significant differences
- minimum PD (glaucomatous beagles [4]; both treatments (spray ejector device BID, eyedropper), by time 1 hour on most days): pinpoint
- PD (glaucomatous beagles [4]; by time 1 hour each day, 6.0 μl at 0.025% spray ejector device and 0.005% eyedropper): 0 mm
